Tested on: scopolamine-induced amnesia
Experiment: Y-shaped maze test of spontaneous alternation behavior in mice with scopolamine-induced amnesia
Format: in vivo
Conditions: male ddY mice, scopolamine 1 mg/kg s.c. 30 minutes before test
Experimental: Male mice (n=15 to 30) of the ddY strain (approximately 7-week old) were used, and they took food and water ad lib. Test substances used were 150 nmol/kg weight (380 μg/kg weight) and 500 nmol/kg weight (1280 μg/kg weight) of […](SEQ ID NO: 2 ). The test substances were administered to the mice once orally […] the execution of a Y-shaped maze test for evaluation of spontaneous alternation behavior. Further, 30 minutes before the execution of the Y-shaped maze test, 1 mg/kg weight of scopolamine was subcutaneously administered on the backs of the mice in order to induce brain dysfunction (dysmnesia and/or cognitive impairment) in the mice. In the Y-shaped maze test, a Y-shaped maze was used as an experimental device, in which the length of each arm was 40 cm, the height of the wall was 12 cm, the width of the floor was 3 cm, and the width of the upper part was 10 cm, and three arms were connected to each other at an angle of 120 degrees. Each of the mice was placed at the tip of any one of the arms of the Y-shaped maze, and then let go to freely explore in the maze for 8 minutes. The sequence of the arms each of the mice entered was recorded. The number of entries by each of the mice for each of the anus during the measurement time was counted to be the total number of entries. In the sequence, the combination in which three different arms were selected in succession (for example, with the three arms respectively called A, B, and C, if the sequence of the arms entered is ABCBACACB, the count is 4 inclusive of overlapping) was investigated, and the number of the count was used as the number of spontaneous alternation behavior. The percentage of spontaneous alternation behavior was calculated by dividing the number of spontaneous alternation behavior by a number obtained by subtracting 2 from the total number of entries, and multiplying a resultant number by 100. The percentage of spontaneous alternation behavior was used as an indicator. […] The measured values were expressed in the form of mean ±standard error for each group. A significant difference between the control group and the scopolamine control group was calculated using Student's t-test. Further, a significant difference between the scopolamine control group and the […] (SEQ ID NO: 2 )-administered group was calculated using Student's t-test.
Male mice (n=15 to 30) of the ddY strain (approximately 7-week old) were used, and they took food and water ad lib. Test substances used here were: 500 nmol/kg weight (1280 μg/kg weight) of […](SEQ ID NO: 2 ); 500 nmol/kg weight (1140 μg/kg weight) of […](SEQ ID NO: 1 ) ([…]); 500 nmol/kg weight (1400 μg/kg weight) of […]([…]) (SEQ ID NO: 3 ); and 500 nmol/kg weight (1150 μg/kg weight) of Ser-Trp-Met-His-Gln-Pro-His-Gln-Pro-Leu-Pro-Pro-Thr-Val-Met-Phe-Pro-Pro-Gln (SWMHQPHQPLPPTVMFPPQ) (SEQ ID NO: 5). The test substances were administered to the mice once orally 60 minutes before the execution of a Y-shaped maze test for evaluation of spontaneous alternation behavior. Further, 30 minutes before the execution of the Y-shaped maze test, 1 mg/kg weight of scopolamine was subcutaneously administered on the backs of the mice in order to induce brain dysfunction (dysmnesia and/or cognitive impairment) in the mice. […] The arms each of the mice entered were sequentially recorded. The number of entries by each of the mice for each of the arms during the measurement time was counted to be the total number of entries. […]

[1] = Example 2, single oral dose 500 nmol/kg weight 60 minutes before Y-shaped maze test, FIG. 2

Sequence	prophylactic activity against amnesia (percentage of spontaneous alternation behavior) (Example 1, single oral dose ranging from 150 nmol/kg weight to 500 nmol/kg weight (380 to 1280 μg/kg weight), given 60 before Y-shaped maze test, FIG. 1)	prophylactic activity against amnesia (percentage of spontaneous alternation behavior) [1]
SWMHQPHQPLPPTVMFPPQSVL (Synthetic functional peptide)	had a prophylactic activity against amnesia	had a prophylactic activity against amnesia
SWMHQPHQPLPPTVMFPPQ (Synthetic comparative example peptide) [Ser-Trp-Met-His-Gln-Pro-His-Gln-Pro-Leu-Pro-Pro-Thr-Val-Met-Phe-Pro-Pro-Gln, C-terminally truncated related peptide tested for comparison]	–	did not show any activity
MHQPHQPLPPTVMFPPQSVL (Synthetic functional peptide)	–	had a prophylactic activity against amnesia
LQSWMHQPHQPLPPTVMFPPQSVL (Synthetic functional peptide)	–	had a prophylactic activity against amnesia

From patent US8344101B2, “Composition for improving brain function and method for improving brain function” (Calpis Co., Ltd., priority 2009, dated 2013)
